Read-outs that look alike come from different tables or passages of the source. Ends that are not written are not given here. Peptide text beside a SMILES is read from it.
T1: CCR3 (Homo sapiens, UniProt P51677)
T1 construct: expressed in transfected cells; host or cells: 293 cells
T1 sequence (P51677 1-355): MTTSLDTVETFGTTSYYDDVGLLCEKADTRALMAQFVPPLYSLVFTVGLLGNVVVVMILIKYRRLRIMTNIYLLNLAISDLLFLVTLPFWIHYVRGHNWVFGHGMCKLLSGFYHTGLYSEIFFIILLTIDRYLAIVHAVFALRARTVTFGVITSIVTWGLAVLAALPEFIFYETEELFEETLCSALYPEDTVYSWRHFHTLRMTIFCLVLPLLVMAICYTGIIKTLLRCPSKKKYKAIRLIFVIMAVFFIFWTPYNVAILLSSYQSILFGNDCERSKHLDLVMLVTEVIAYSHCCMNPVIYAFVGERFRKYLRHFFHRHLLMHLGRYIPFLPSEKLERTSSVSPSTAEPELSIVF

T2: CXCR2 (Homo sapiens, UniProt P25025)
T2 construct: expressed in transfected cells; host or cells: 293 cells
T2 sequence (P25025 1-360): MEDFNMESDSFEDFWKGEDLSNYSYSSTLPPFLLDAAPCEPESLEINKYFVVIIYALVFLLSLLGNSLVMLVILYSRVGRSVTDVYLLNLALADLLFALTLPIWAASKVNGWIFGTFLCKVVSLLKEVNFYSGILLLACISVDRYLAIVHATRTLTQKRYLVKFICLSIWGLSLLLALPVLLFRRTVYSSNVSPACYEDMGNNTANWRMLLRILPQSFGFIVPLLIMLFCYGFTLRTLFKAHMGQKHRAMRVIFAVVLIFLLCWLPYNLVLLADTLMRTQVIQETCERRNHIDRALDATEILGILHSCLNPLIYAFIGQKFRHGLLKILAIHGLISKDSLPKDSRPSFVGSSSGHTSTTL

T3: CCR3 on human eosinophils (human, UniProt P51677 1-355)
T3 sequence (looked up): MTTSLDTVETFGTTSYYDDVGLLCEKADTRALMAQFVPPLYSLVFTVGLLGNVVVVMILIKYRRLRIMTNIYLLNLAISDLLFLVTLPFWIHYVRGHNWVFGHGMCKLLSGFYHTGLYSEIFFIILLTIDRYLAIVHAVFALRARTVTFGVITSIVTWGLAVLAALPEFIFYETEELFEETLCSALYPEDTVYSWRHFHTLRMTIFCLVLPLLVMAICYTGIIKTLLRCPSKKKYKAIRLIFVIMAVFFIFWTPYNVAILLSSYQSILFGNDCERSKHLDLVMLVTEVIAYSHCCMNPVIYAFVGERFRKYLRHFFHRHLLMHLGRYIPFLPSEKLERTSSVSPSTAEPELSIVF


Legend:
human eosinophils [1] = type: cell-based
Protocol: Human eosinophils were prepared by isolation from the blood of donor individuals with high levels of circulating blood eosinophils (5-17%) by combining density gradient centrifugation and negative selection with anti-CD16 magnetic beads. Briefly, the granulocyte fraction from the Percoll centrifugation was incubated with CD16 micro beads (miniMACS™, separation unit) for 30 minutes. Cells were then passed through a MACS™ column (Miltenyi Biotec, Inc., Auburn, Calif.) and eosinophils were collected in the flow through. Eosinophil purity was >98% as determined by analysis of Diff-Quik™ (Baxter) stained cytocentrifugation preparations by light microscopy. Intracellular free calcium was measured using the fluorescent probe Fluo-3. Cell suspensions (10^7 cells/ml) were loaded with Fluo-3/AM (1 μM, 30 minutes at 37° C), washed, resuspended at 2×10^6 cells/ml in Hanks' balanced salt solution (HBSS) and their fluorescence monitored in a spectrofluorometer (SLM 8000, SLM-Aminco, Champagne, Ill., USA) (excitation and emission wavelengths, 500 and 530 nm, respectively) The internal calcium concentrations were calculated as described in Tsien et al. (J. Cell. Biol. 94: 3325-3334, 1982). Each assay was individually calibrated.

human eosinophils [2] = type: cell-based; remark: listed apart in the source
Protocol: Human eosinophils were prepared by isolation from the blood of donor individuals with high levels of circulating blood eosinophils (5-17%) by combining density gradient centrifugation and negative selection with anti-CD16 magnetic beads. Briefly, the granulocyte fraction from the Percoll centrifugation was incubated with CD16 micro beads (miniMACS™, separation unit) for 30 minutes. Cells were then passed through a MACS™ column (Miltenyi Biotec, Inc., Auburn, Calif.) and eosinophils were collected in the flow through. Eosinophil purity was >98% as determined by analysis of Diff-Quik™ (Baxter) stained cytocentrifugation preparations by light microscopy. Leukocyte chemotaxis was assessed on eosinophils, using a modification of a transendothelial assay. The endothelial cells used in this assay were the endothelial cell line, ECV 304, obtained from the European collection of Animal Cell Cultures (Porton Downs, Salisbury, U.K.). Endothelial cells were cultured on 6.5 mm diameter Transwell™ culture inserts (Costar Corp., Cambridge, Mass.) with 3.0 μm pore size. The assay media consisted of equal parts RPMI 1640 and M199 with 0.5% BSA. […] The cells that had migrated to the bottom chamber were counted using flow cytometry. […] Inhibitor potency was determined by comparison of cell numbers migrated to the bottom chamber, with or without inhibitor. […]

CCR3 = target: T1, CCR3; assay: Binding specificity, CCR3 transfected in 293 cells; conditions: CCR3 transfected 293 cells; peptide at 10 μM (FIG. 4 legend)
Protocol: (§1) Chemokine binding to the target cells, human eosinophils and 293/CCR3 cells, was carried out using a modification of a method previously reported. Cells were washed once in PBS and resuspended in binding buffer (50 mM HEPES, 1 mM CaCl2, 5 mM MgCl2, and 0.5% BSA) at a concentration of 1×10^7/mL. Aliquots of 50 μL (5×10^5 cells) were dispensed into microfuge tubes, followed by the addition of cold and radiolabeled chemokines. The final reaction volume was 200 μL. Nonspecific binding was determined by incubating cells with radiolabeled chemokines in the presence of increasing amounts of (250-500 nM) of cold chemokine. After 60-min incubation, at room temperature, the cells were washed three times with 1 ml of binding buffer plus 0.5 M NaCl. Cell pellets were then counted. All experiments were carried out using duplicates and repeated at least three times. Curve fit was calculated by Kaleidagraph™ software (Synergy Software, Reading, Pa.). Inhibition of binding was assessed by the addition of test inhibitor compound at the indicated concentrations, and incubation for 30 min prior to addition of the chemokine as above.
(§2) The compound was used in the binding assay to compete with CXCR4, CXCR2, CCR2, and CCR3 transfected in 293 cells. […] The data are representative of three independent experiments.

CCR2 = target: T4, CCR2 (Homo sapiens, UniProt P41597); assay: Binding specificity, CCR2 transfected in 293 cells; conditions: CCR2 transfected 293 cells; peptide at 10 μM (FIG. 4 legend)
T4 construct: expressed in transfected cells; host or cells: 293 cells
Protocol: as §1, §2

CXCR2 = target: T2, CXCR2; assay: Binding specificity, CXCR2 transfected in 293 cells; conditions: CXCR2 transfected 293 cells; peptide at 10 μM (FIG. 4 legend)
Protocol: as §1, §2

CXCR4 = target: T5, CXCR4 (Homo sapiens, UniProt P61073); assay: Binding specificity, CXCR4 transfected in 293 cells; conditions: CXCR4 transfected 293 cells; peptide at 10 μM (FIG. 4 legend)
T5 construct: expressed in transfected cells; host or cells: 293 cells
Protocol: as §1, §2

human eosinophils [3] = assay: Cytotoxicity, lysis of 51Cr-labeled cells; type: cell-based; conditions: cells cultured in presence of the peptide
Protocol: To exclude the possible contribution of cytotoxicity of the hexapeptides to the inhibition of eosinophil function, ^51Cr-labeled cells were cultured in presence of the peptide for the indicated time.

human eosinophils [4] = type: cell-based; remark: listed apart in the source
human eosinophils [5] = assay: Cell viability by MTT incorporation; type: cell-based; conditions: after 24 hours
Protocol: In FIG. 5, cell viability in presence of SC004411 was assayed with MTT incorporation. […] The data are representative of three independent experiments.

[6] = target: T3, CCR3 on human eosinophils; assay: cell-based or functional assay
[7] = target: T3, CCR3 on human eosinophils; assay: competition with 125I-eotaxin (0.3 nM) for CCR3 on human eosinophils, filtration radioligand assay

T4 sequence (P41597 whole entry, species assumed): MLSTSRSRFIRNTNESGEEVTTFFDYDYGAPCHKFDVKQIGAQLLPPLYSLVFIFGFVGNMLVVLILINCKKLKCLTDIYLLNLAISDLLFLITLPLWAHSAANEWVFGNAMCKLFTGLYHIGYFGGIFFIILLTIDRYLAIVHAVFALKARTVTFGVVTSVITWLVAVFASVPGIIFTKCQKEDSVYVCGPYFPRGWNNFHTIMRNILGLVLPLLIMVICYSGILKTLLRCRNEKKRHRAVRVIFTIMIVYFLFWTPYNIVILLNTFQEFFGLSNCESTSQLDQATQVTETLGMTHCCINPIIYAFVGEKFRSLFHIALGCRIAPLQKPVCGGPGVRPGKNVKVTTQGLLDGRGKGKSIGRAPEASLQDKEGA
T5 sequence (P61073 whole entry, species assumed): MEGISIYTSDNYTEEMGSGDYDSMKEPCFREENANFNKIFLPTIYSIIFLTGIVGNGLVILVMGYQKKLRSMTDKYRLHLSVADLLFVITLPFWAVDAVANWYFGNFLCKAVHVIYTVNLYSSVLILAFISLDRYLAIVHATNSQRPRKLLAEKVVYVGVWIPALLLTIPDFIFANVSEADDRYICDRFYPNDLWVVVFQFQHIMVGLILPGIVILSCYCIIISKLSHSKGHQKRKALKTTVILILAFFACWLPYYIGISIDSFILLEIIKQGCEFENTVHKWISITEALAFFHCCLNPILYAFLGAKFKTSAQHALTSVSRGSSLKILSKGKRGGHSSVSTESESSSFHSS

Molecule	IC50 (human eosinophils [1])	IC50 (human eosinophils [2])	inhibition of eotaxin-binding to CCR3 (CCR3)	inhibition of binding to CCR2 (CCR2)	inhibition of binding to CXCR2 (CXCR2)	inhibition of binding to CXCR4 (CXCR4)	cell lysis of 51Cr-labeled human eosinophils (human eosinophils [3])	toxicity by Trypan Blue exclusion (human eosinophils [4])	concentration at which the compound starts to be toxic (MTT viability) (human eosinophils [5])	inhibition of eotaxin-induced calcium mobilization of human eosinophils (functional IC50) [6]	inhibition of eotaxin-induced chemotaxis of human eosinophils (functional IC50) [6]	IC50 [7]
CC(=O)N[C@@H](CS)C(=O)N[C@@H](CCCNC(=N)N)C(=O)N[C@@H](CS)C(=O)N[C@@H](C)C(=O)N[C@@H](C)C(=O)N[C@@H](CCCNC(=N)N)C(N)=O [SC004411, CRCAAR] (Ac-CRCAAR-NH2; N-terminus and C-terminus assumed)	~40 µM	~20 µM	specifically inhibited	not	not	not	did not cause cell lysis	not toxic	above 100 μM	–	–	–
CRCAAR (not fully specified; cysteine pairing not given here, Synthetic hexapeptide; also called compound SC004411) [hexamer peptide CRCAAR (SEQ ID NO: 1), peptide SC004411]	–	–	–	–	–	–	–	–	–	~40 µM	~20 µM	~40 µM

From patent US20030083239A1, “Chemokine receptor CCR3 antagonists” (priority 1999, published 2003)
